B1: SIVmac239 Vpx: lentiviral accessory protein, codon-optimized expression vector, SEQ ID NO: 85 (protein)
chain: MSDPRERIPPGNSGEETIGEAFEWLNRTVEEINREAVNHLPRELIFQVWQRSWEYWHDEQGMSPSYVKYRYLCLIQKALFMHCKKGCRCLGEGHGAGGWRPGPPPPPPPGLA
modifications: Simian immunodeficiency virus
B2: SIVagm Vpr: SIVagm protein termed Vpr but more similar to Vpx (protein)
chain: MAEGRDSRERRPGWLEIWDLSREPWDEGLRDMVAELNQEAQRHFGRELLFQVWNFCQEEGERNGAPMIERAYRYYRLVQKALFVHFRCGCRRRTPFEPYEERRNGVGGGRDGREPPPGLA
modifications: Simian immunodeficiency virus
notes: SIVagm protein termed Vpr but more similar to Vpx

Assays:
MDM = assay type: cell-based, human
MDM and MDDC = test: Infectivity on MDM and MDDC (summary statements); assay type: cell-based, human; conditions: accessory protein provided in trans
MDDC = assay type: cell-based, human
IFN-β mRNA = IFN-β mRNA induction in infected MDDC by qRT-PCR; assay type: cell-based, human; conditions: AZT 25 μM or Raltegravir 10 μM added prior to infection
resting CD4+ T cells = conditions: Siliciano et al. 2012; cited from earlier work

Molecule	Effect of packaged accessory protein on infectivity of the p6 chimeric virus (MDM)	Enhancement of MDM and MDDC infection (MDM and MDDC)	Effect of packaged accessory protein on infectivity of the p6 chimeric virus (MDDC)	Effect on IFN-β induction by Vpx-containing p6 chimeric virus (IFN-β mRNA)	other results
HIV-2rod Vpx: HIV-2 Vpx accessory protein from codon-optimized expression vector	enhanced the infectivity of the p6 chimeric virus on MDM	only slightly enhanced MDM and MDDC infection	enhanced the infectivity of the p6 chimeric virus	–	Activity relative to SIVmac239 Vpx (MDDC): about 8%
Cc1nnc(C(=O)NC(C)(C)c2nc(C(=O)NCc3ccc(F)cc3)c(O)c(=O)n2C)o1 [Raltegravir]	–	–	–	blocked	–
Cc1cn([C@H]2C[C@H](N=[N+]=[N-])[C@@H](CO)O2)c(=O)[nH]c1=O [AZT]	–	–	–	blocked	–
O=C(CCCCCCC(=O)Nc1ccccc1)NO [SAHA, suberoylanilide hydroxamic acid]	–	–	–	–	Virus reactivation (resting CD4+ T cells): induced virus reactivation from resting CD4+ T cells
B1	enhanced the infectivity of the p6 chimeric virus on MDM	–	enhanced the infectivity of the p6 chimeric virus	–	–
B2	had no detectable effect	did not enhance the infection	had no detectable effect	–	–

From patent US9149519B2, “Chimeric human immunodeficiency virus type 1 (HIV-1) with enhanced dendritic cell and macrophage tropism comprising the simian immunodeficiency virus (SIV) minimal Vpx packaging domain” (New York University, priority 2012, dated 2015)
